# Assay results from US11254663B2 (BRISTOL-MYERS SQUIBB COMPANY, priority 2019, dated 2022).
# Where two headings read alike, the source gives them in different places.
# Molecular target: FXR (Homo sapiens (Human), UniProt Q96RI1)
# Assay: transient human FXR/Gal4-luciferase reporter assay
# Format: cell-based
# How it was run: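 HEK293 cells stably carrying a 5×Gal4 response element–firefly luciferase reporter were transiently transfected overnight with a Gal4 DBD–human FXR LBD fusion plasmid. Compound was added in DMSO and cells were incubated overnight at 37 °C, 5% CO2. Activity was read as Steady-Glo luminescence.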
# [1] = Gal4-hFXR fusion construct, HEK293 reporter cells, response relative to 8 μM GW-4064
# Sequence of FXR (Q96RI1 262-486): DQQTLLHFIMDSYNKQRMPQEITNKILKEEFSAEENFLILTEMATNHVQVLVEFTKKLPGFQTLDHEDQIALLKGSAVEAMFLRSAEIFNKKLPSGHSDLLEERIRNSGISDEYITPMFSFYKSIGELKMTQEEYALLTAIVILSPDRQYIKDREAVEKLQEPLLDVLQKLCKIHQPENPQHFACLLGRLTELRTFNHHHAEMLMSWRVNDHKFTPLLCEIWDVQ
SMILES,EC50 [1] [nM],EC50 [nM]
"CCOc1ncc(-c2ccnc(N(CC34CCC(c5nc(C6CC6)no5)(CC3)CC4)C(=O)C34CC(F)(C3)C4)c2)cn1 [Example 548, N-((4-(3-cyclopropyl-1,2,4-oxadiazol-5-yl)bicyclo[2.2.2]octan-1-yl)methyl)-N-(4-(2-ethoxypyrimidin-5-yl)pyridin-2-yl)-3-fluorobicyclo[1.1.1]pentane-1-carboxamide]",111,
"CC(C)Oc1ccc(-c2cccc(N(CC34CCC(c5cc(C(C)(F)F)n(C)n5)(CC3)CC4)C(=O)OC(C)(C)C(F)(F)F)c2)cc1 [Example 658, 1,1,1-trifluoro-2-methylpropan-2-yl ((4-(5-(1,1-difluoroethyl)-1-methyl-1H-pyrazol-3-yl)bicyclo[2.2.2]octan-1-yl)methyl)(4′-isopropoxy-[1,1′-biphenyl]-3-yl)carbamate]",917,
"CCOc1ccc(-c2cccc(N(CC34CCC(c5noc(C(F)F)n5)(CC3)CC4)C(=O)C34CC(F)(C3)C4)c2)cc1 [Example 461, N-((4-(5-(difluoromethyl)-1,2,4-oxadiazol-3-yl)bicyclo[2.2.2]octan-1-yl)methyl)-N-(4′-ethoxy-[1,1′-biphenyl]-3-yl)-3-fluorobicyclo[1.1.1]pentane-1-carboxamide]",,603
"Cc1nc2ccc(-c3cccc(N(CC45CCC(c6ccc(C(=O)N(C)C)cc6)(CC4)OC5)C(=O)C45CC(F)(C4)C5)c3)cc2s1 [Example 569, N-((1-(4-(dimethylcarbamoyl)phenyl)-2-oxabicyclo[2.2.2]octan-4-yl)methyl)-3-fluoro-N-(3-(2-methylbenzo[d]thiazol-6-yl)phenyl)bicyclo[1.1.1]pentane-1-carboxamide]",2220,
"Cc1nc2ccc(-c3cccc(N(CC45CCC(c6cc(C7CC7)nn6C)(CC4)CC5)C(=O)C45CC(F)(C4)C5)c3)cc2s1 [Example 415, N-((4-(3-cyclopropyl-1-methyl-1H-pyrazol-5-yl)bicyclo[2.2.2]octan-1-yl)methyl)-3-fluoro-N-(3-(2-methylbenzo[d]thiazol-6-yl)phenyl)bicyclo[1.1.1]pentane-1-carb oxamide]",125,
"Cc1ccc(-c2cccc(N(CC34CCC(c5nc(C6CC6)no5)(CC3)CC4)C(=O)C34CC(F)(C3)C4)c2)nn1 [Example 295, N-((4-(3-cyclopropyl-1,2,4-oxadiazol-5-yl)bicyclo[2.2.2]octan-1-yl)methyl)-3-fluoro-N-(3-(6-methylpyridazin-3-yl)phenyl)bicyclo[1.1.1]pentane-1-carboxamide]",839,
"COCc1ccc(-c2cccc(N(CC34CCC(c5nc(C6CC6)no5)(CC3)CC4)C(=O)C34CC(F)(C3)C4)c2)cn1 [Example 274, N-((4-(3-cyclopropyl-1,2,4-oxadiazol-5-yl)bicyclo[2.2.2]octan-1-yl)methyl)-3-fluoro-N-(3-(6-(methoxymethyl)pyridin-3-yl)phenyl)bicyclo[1.1.1]pentane-1-carboxamide]",106,
"CC(C)Oc1ccc(-c2ccnc(N(CC34CCC(c5cc(C(C)(F)F)nn5C)(CC3)CC4)C(=O)OC(C)(C)C(F)(F)F)c2)cc1 [Example 657, 1,1,1-trifluoro-2-methylpropan-2-yl ((4-(3-(1,1-difluoroethyl)-1-methyl-1H-pyrazol-5-yl)bicyclo[2.2.2]octan-1-yl)methyl)(4-(4-isopropoxyphenyl)pyridin-2-yl)carbamate]",67,
"CC(C)(OC(=O)N(CC12CCC(c3noc(C4(F)CC4)n3)(CC1)CC2)c1cc(-c2ccc(OC(F)F)cc2)ccn1)C(F)(F)F [Example 624, 1,1,1-trifluoro-2-methylpropan-2-yl(4-(4-(difluoromethoxy)phenyl)pyridin-2-yl)((4-(5-(1-fluorocyclopropyl)-1,2,4-oxadiazol-3-yl)bicyclo[2.2.2]octan-1-yl)methyl)carbamate]",50,
"CCOc1ncc(-c2cccc(N(CC34CCC(c5noc(C6(C(F)(F)F)CC6)n5)(CC3)CC4)C(=O)C34CC(F)(C3)C4)c2)cn1 [Example 525, N-(3-(2-ethoxypyrimidin-5-yl)phenyl)-3-fluoro-N-((4-(5-(1-(trifluoromethyl)cyclopropyl)-1,2,4-oxadiazol-3-yl)bicyclo[2.2.2]octan-1-yl)methyl)bicyclo[1.1.1]pentane-1-carboxamide]",,142
"O=C(N(CC12CCC(c3nc(C4CC4)no3)(CC1)CC2)c1cccc(-c2cnc3cc(Cl)cnn23)c1)C12CC(F)(C1)C2 [Example 329, N-(3-(7-chloroimidazo[1,2-b]pyridazin-3-yl)phenyl)-N-((4-(3-cyclopropyl-1,2,4-oxadiazol-5-yl)bicyclo[2.2.2]octan-1-yl)methyl)-3-fluorobicyclo[1.1.1]pentane-1-carboxamide]",222,
"CCc1cnc(-c2cccc(N(CC34CCC(c5ccc(C(F)(F)F)cn5)(CC3)CC4)C(=O)C34CC(F)(C3)C4)c2)nc1 [Example 496, N-(3-(5-ethylpyrimidin-2-yl)phenyl)-3-fluoro-N-((4-(5-(trifluoromethyl)pyridin-2-yl)bicyclo[2.2.2]octan-1-yl)methyl)bicyclo[1.1.1]pentane-1-carboxamide]",,539
"CC(C)c1nc(C23CCC(CN(C(=O)C45CC(F)(C4)C5)c4cccc(-c5ccc(OC(F)F)cc5)c4)(CC2)CC3)no1 [Example 436, N-(4′-(difluoromethoxy)-[1,1′-biphenyl]-3-yl)-3-fluoro-N-((4-(5-isopropyl-1,2,4-oxadiazol-3-yl)bicyclo[2.2.2]octan-1-yl)methyl)bicyclo[1.1.1]pentane-1-carboxamide]",46,
"Cc1nc2ccc(-c3cccc(N(CC45CCC(c6noc(C7(C)CC7)n6)(CC4)CC5)C(=O)C45CC(F)(C4)C5)c3)cc2s1 [Example 402, 3-fluoro-N-(3-(2-methylbenzo[d]thiazol-6-yl)phenyl)-N-((4-(5-(1-methylcyclopropyl)-1,2,4-oxadiazol-3-yl)bicyclo[2.2.2]octan-1-yl)methyl)bicyclo[1.1.1]pentane-1-carboxamide]",35,
"CC(C)(C)c1nc(C23CCC(CN(C(=O)C45CC(F)(C4)C5)c4cncc(-c5ccc(NS(C)(=O)=O)cc5)c4)(CC2)CC3)no1 [Example 481, N-((4-(5-(tert-butyl)-1,2,4-oxadiazol-3-yl)bicyclo[2.2.2]octan-1-yl)methyl)-3-fluoro-N-(5-(4-(methylsulfonamido)phenyl)pyridin-3-yl)bicyclo[1.1.1]pentane-1-carboxamide]",,580
"O=C(N(CC12CCC(c3nc(C4CC4)no3)(CC1)CC2)c1cccc(-c2ccc(OC(F)F)cc2)c1)C12CC(F)(C1)C2 [Example 308, N-((4-(3-cyclopropyl-1,2,4-oxadiazol-5-yl)bicyclo[2.2.2]octan-1-yl)methyl)-N-(4′-(difluoromethoxy)-[1,1′-biphenyl]-3-yl)-3-fluorobicyclo[1.1.1]pentane-1-carboxamide]",15,
"O=C(C1CC(F)(F)C1)N(CC12CCC(c3nc(C4CC4)no3)(CC1)CC2)c1cccc(-c2nc3cc(F)ccc3o2)c1 [Example 560, N-((4-(3-cyclopropyl-1,2,4-oxadiazol-5-yl)bicyclo[2.2.2]octan-1-yl)methyl)-3,3-difluoro-N-(3-(5-fluorobenzo[d]oxazol-2-yl)phenyl)cyclobutane-1-carboxamide]",,1510
